Here are results for 27 compounds from patent US8710065B2, “Tricyclic inhibitors of kinases” (AbbVie Inc., priority 2011, dated 2014).

Structures are written as SMILES.

For this assay, the target named is T1, GST-tagged-Wee1 kinase (Homo sapiens, UniProt P30291).
T1 construct: purchased Carnabio (Carna Biosciences) 05-177
T1 sequence (P30291 whole entry): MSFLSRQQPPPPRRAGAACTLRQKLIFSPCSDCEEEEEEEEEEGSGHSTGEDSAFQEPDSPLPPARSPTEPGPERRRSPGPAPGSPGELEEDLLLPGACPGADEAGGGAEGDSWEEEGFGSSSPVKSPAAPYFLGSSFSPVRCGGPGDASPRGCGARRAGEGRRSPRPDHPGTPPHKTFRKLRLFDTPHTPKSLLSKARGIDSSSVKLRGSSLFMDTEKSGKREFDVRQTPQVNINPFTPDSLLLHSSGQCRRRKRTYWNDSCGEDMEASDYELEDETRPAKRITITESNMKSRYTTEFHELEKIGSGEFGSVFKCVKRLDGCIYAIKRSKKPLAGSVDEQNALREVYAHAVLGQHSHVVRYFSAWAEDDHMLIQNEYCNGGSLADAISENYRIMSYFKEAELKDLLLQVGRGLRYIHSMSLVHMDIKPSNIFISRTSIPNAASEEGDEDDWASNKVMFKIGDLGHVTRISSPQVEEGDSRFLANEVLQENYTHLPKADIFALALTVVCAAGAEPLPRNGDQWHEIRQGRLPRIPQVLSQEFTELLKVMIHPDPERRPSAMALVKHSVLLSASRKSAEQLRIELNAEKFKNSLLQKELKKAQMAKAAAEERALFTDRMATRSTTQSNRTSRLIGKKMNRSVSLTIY
The experiment in a line: Wee1 time-resolved fluorescence equilibrium binding assay (displacement of Oregon Green-labeled ATP-competitive kinase probe). The settings on record: read-out: Wee-1 inhibition (Ki). The gist of the method:
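Ki values derive from competitive displacement, under equilibrium, of a fast-reversible ATP-site Oregon Green kinase probe from GST-tagged Wee1, detected by time-resolved fluorescence.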
By Ki is commonly meant a measure of affinity in units of concentration, obtained from inhibition or displacement. As to `O=c1c2cnc(Nc3ccc(N4CC5CNCC5C4)cc3)nc2n2ccnc2n1-c1ccccc1Cl` (stereo not drawn) [Example 292, 6-(2-chlorophenyl)-2-{[4-(hexahydropyrrolo[3,4-c]pyrrol-2(1H)-yl)phenyl]amino}imidazo[1,2-a]pyrimido[5,4-e]pyrimidin-5(6H)-one], the Ki is < 0.01 µM.

Take `CNS(=O)(=O)Cc1ccc(Nc2ncc3c(=O)n(-c4ccccc4Cl)c4nccn4c3n2)cc1` [Example 293, 1-(4-{[6-(2-chlorophenyl)-5-oxo-5,6-dihydroimidazo[1,2-a]pyrimido[5,4-e]pyrimidin-2-yl]amino}phenyl)-N-methylmethanesulfonamide]: the Ki was 0.01 to 0.1 µM.

`CCN(CC)S(=O)(=O)c1ccc(Nc2ncc3c(=O)n(-c4ccccc4Cl)c4nccn4c3n2)cc1` [Example 294, 4-{[6-(2-chlorophenyl)-5-oxo-5,6-dihydroimidazo[1,2-a]pyrimido[5,4-e]pyrimidin-2-yl]amino}-N,N-diethylbenzenesulfonamide]: the inhibitory constant (Ki) lay in the range of 0.01 to 0.1 µM. As to `O=c1c2cnc(Nc3ccc4c(c3)CC(NC3CC3)C4)nc2n2ccnc2n1-c1c(Cl)cccc1Cl` (stereo not drawn) [Example 295, 2-{[2-(cyclopropylamino)-2,3-dihydro-1H-inden-5-yl]amino}-6-(2,6-dichlorophenyl)imidazo[1,2-a]pyrimido[5,4-e]pyrimidin-5(6H)-one], the Ki is < 0.01 µM. For `O=c1c2cnc(Nc3ccc4c(c3)CC(NCCF)C4)nc2n2ccnc2n1-c1c(Cl)cccc1Cl` (stereo not drawn) [Example 296, 6-(2,6-dichlorophenyl)-2-({2-[(2-fluoroethyl)amino]-2,3-dihydro-1H-inden-5-yl}amino)imidazo[1,2-a]pyrimido[5,4-e]pyrimidin-5(6H)-one], the inhibitory constant (Ki) is < 0.01 µM. Turning to `CCCNC1Cc2ccc(Nc3ncc4c(=O)n(-c5c(Cl)cccc5Cl)c5nccn5c4n3)cc2C1` (stereo not drawn) [Example 297, 6-(2,6-dichlorophenyl)-2-{[2-(propylamino)-2,3-dihydro-1H-inden-5-yl]amino}imidazo[1,2-a]pyrimido[5,4-e]pyrimidin-5(6H)-one], the inhibition constant Ki is < 0.01 µM. Then `CC(=O)N1CC2(CCN(c3ccc(Nc4ncc5c(=O)n(-c6c(Cl)cccc6Cl)c6nccn6c5n4)cc3)CC2)C1` [Example 298, 2-{[4-(2-acetyl-2,7-diazaspiro[3.5]non-7-yl)phenyl]amino}-6-(2,6-dichlorophenyl)imidazo[1,2-a]pyrimido[5,4-e]pyrimidin-5(6H)-one], with < 0.01 µM. Regarding `CS(=O)(=O)N1CC2(CCN(c3ccc(Nc4ncc5c(=O)n(-c6c(Cl)cccc6Cl)c6nccn6c5n4)cc3)CC2)C1` [Example 299, 6-(2,6-dichlorophenyl)-2-({4-[2-(methylsulfonyl)-2,7-diazaspiro[3.5]non-7-yl]phenyl}amino)imidazo[1,2-a]pyrimido[5,4-e]pyrimidin-5(6H)-one], the Ki is < 0.01 µM. Then `CNC(=O)N1Cc2cc(Nc3ncc4c(=O)n(-c5c(F)cccc5Cl)c5nccn5c4n3)ccc2C2(CC2)C1` [Example 300, 7′-{[6-(2-chloro-6-fluorophenyl)-5-oxo-5,6-dihydroimidazo[1,2-a]pyrimido[5,4-e]pyrimidin-2-yl]amino}-N-methyl-1′H-spiro[cyclopropane-1,4′-isoquinoline]-2′(3′H)-carboxamide], with < 0.01 µM; and `CC(C)NC(=O)N1Cc2cc(Nc3ncc4c(=O)n(-c5c(F)cccc5Cl)c5nccn5c4n3)ccc2C2(CC2)C1` [Example 301, 7′-{[6-(2-chloro-6-fluorophenyl)-5-oxo-5,6-dihydroimidazo[1,2-a]pyrimido[5,4-e]pyrimidin-2-yl]amino}-N-(propan-2-yl)-1′H-spiro[cyclopropane-1,4′-isoquinoline]-2′(3′H)-carboxamide], with < 0.01 µM. The result for `CC1(C)CN(CCF)Cc2cc(Nc3ncc4c(=O)n(-c5c(Cl)cccc5Cl)c5nccn5c4n3)ccc21` [Example 302, 6-(2,6-dichlorophenyl)-2-{[2-(2-fluoroethyl)-4,4-dimethyl-1,2,3,4-tetrahydroisoquinolin-7-yl]amino}imidazo[1,2-a]pyrimido[5,4-e]pyrimidin-5(6H)-one] reads < 0.01 µM. Regarding `CS(=O)(=O)N1CC2(CN(c3ccc(Nc4ncc5c(=O)n(-c6c(Cl)cccc6Cl)c6nccn6c5n4)cc3)C2)C1` [Example 303, 6-(2,6-dichlorophenyl)-2-({4-[6-(methylsulfonyl)-2,6-diazaspiro[3.3]hept-2-yl]phenyl}amino)imidazo[1,2-a]pyrimido[5,4-e]pyrimidin-5(6H)-one], the Ki was < 0.01 µM.

Turning to `O=c1c2cnc(Nc3ccc(N4CC5(CNC5)C4)cc3)nc2n2ccnc2n1-c1c(Cl)cccc1Cl` [Example 304, 2-{[4-(2,6-diazaspiro[3.3]hept-2-yl)phenyl]amino}-6-(2,6-dichlorophenyl)imidazo[1,2-a]pyrimido[5,4-e]pyrimidin-5(6H)-one], the Ki was < 0.01 µM.

Consider `O=c1c2cnc(Nc3ccc4c(c3)CC(N3CCCC3)C4)nc2n2ccnc2n1-c1c(Cl)cccc1Cl` (stereo not drawn) [Example 305, 6-(2,6-dichlorophenyl)-2-{[2-(pyrrolidin-1-yl)-2,3-dihydro-1H-inden-5-yl]amino}imidazo[1,2-a]pyrimido[5,4-e]pyrimidin-5(6H)-one], for which the Ki was < 0.01 µM. Turning to `O=c1c2cnc(Nc3ccc4c(c3)CC(N3CC[C@H](F)C3)C4)nc2n2ccnc2n1-c1c(Cl)cccc1Cl` (stereo partly drawn) [Example 306, 6-(2,6-dichlorophenyl)-2-({2-[(3S)-3-fluoropyrrolidin-1-yl]-2,3-dihydro-1H-inden-5-yl}amino)imidazo[1,2-a]pyrimido[5,4-e]pyrimidin-5(6H)-one], the Ki was < 0.01 µM. `CC1(C)CNCc2cc(Nc3ncc4c(=O)n(-c5c(Cl)cccc5Cl)c5nccn5c4n3)ccc21` [Example 307, 6-(2,6-dichlorophenyl)-2-[(4,4-dimethyl-1,2,3,4-tetrahydroisoquinolin-7-yl)amino]imidazo[1,2-a]pyrimido[5,4-e]pyrimidin-5(6H)-one]: the inhibitory constant (Ki) was < 0.01 µM. With `O=c1c2cnc(Nc3ccc(NC4CCNCC4)cc3)nc2n2ccnc2n1-c1c(Cl)cccc1Cl` [Example 308, 6-(2,6-dichlorophenyl)-2-{[4-(piperidin-4-ylamino)phenyl]amino}imidazo[1,2-a]pyrimido[5,4-e]pyrimidin-5(6H)-one], the Ki was < 0.01 µM.

Consider `CN1CCC(c2ccc(Nc3ncc4c(=O)n(-c5c(F)cccc5Cl)c5nccn5c4n3)cc2)CC1` [Example 309, 6-(2-chloro-6-fluorophenyl)-2-{[4-(1-methylpiperidin-4-yl)phenyl]amino}imidazo[1,2-a]pyrimido[5,4-e]pyrimidin-5(6H)-one], for which the inhibition constant (Ki) is < 0.01 µM. In the case of `CC(=O)N1Cc2cc(Nc3ncc4c(=O)n(-c5c(F)cccc5Cl)c5nccn5c4n3)ccc2C(C)(C)C1` [Example 310, 2-[(2-acetyl-4,4-dimethyl-1,2,3,4-tetrahydroisoquinolin-7-yl)amino]-6-(2-chloro-6-fluorophenyl)imidazo[1,2-a]pyrimido[5,4-e]pyrimidin-5(6H)-one], the Ki is < 0.01 µM. Turning to `CC1(C)CN(C(=O)C2CC2)Cc2cc(Nc3ncc4c(=O)n(-c5c(F)cccc5Cl)c5nccn5c4n3)ccc21` [Example 311, 6-(2-chloro-6-fluorophenyl)-2-{[2-(cyclopropylcarbonyl)-4,4-dimethyl-1,2,3,4-tetrahydroisoquinolin-7-yl]amino}imidazo[1,2-a]pyrimido[5,4-e]pyrimidin-5(6H)-one], the inhibition constant Ki is < 0.01 µM.

As for `CC1(C)CN(S(C)(=O)=O)Cc2cc(Nc3ncc4c(=O)n(-c5c(F)cccc5Cl)c5nccn5c4n3)ccc21` [Example 312, 6-(2-chloro-6-fluorophenyl)-2-{[4,4-dimethyl-2-(methylsulfonyl)-1,2,3,4-tetrahydroisoquinolin-7-yl]amino}imidazo[1,2-a]pyrimido[5,4-e]pyrimidin-5(6H)-one], the inhibition constant (Ki) is < 0.01 µM. Then `O=c1c2cnc(Nc3ccc(N4CC5(CCNC5)C4)cc3)nc2n2ccnc2n1-c1c(Cl)cccc1Cl` [Example 313, 2-{[4-(2,6-diazaspiro[3.4]oct-2-yl)phenyl]amino}-6-(2,6-dichlorophenyl)imidazo[1,2-a]pyrimido[5,4-e]pyrimidin-5(6H)-one], with < 0.01 µM. Then `O=c1c2cnc(Nc3ccc(N4CC5(CCNCC5)C4)cc3)nc2n2ccnc2n1-c1c(Cl)cccc1Cl` [Example 314, 2-{[4-(2,7-diazaspiro[3.5]non-2-yl)phenyl]amino}-6-(2,6-dichlorophenyl)imidazo[1,2-a]pyrimido[5,4-e]pyrimidin-5(6H)-one], with < 0.01 µM; and `CN(C)[C@H]1CCN(c2ccc(Nc3ncc4c(=O)n(-c5c(Cl)cccc5Cl)c5nccn5c4n3)cc2)C1` [Example 315, 6-(2,6-dichlorophenyl)-2-({4-[(3S)-3-(dimethylamino)pyrrolidin-1-yl]phenyl}amino)imidazo[1,2-a]pyrimido[5,4-e]pyrimidin-5(6H)-one], with < 0.01 µM; and `CC1(C)CN(C(=O)CO)Cc2cc(Nc3ncc4c(=O)n(-c5c(F)cccc5Cl)c5nccn5c4n3)ccc21` [Example 316, 6-(2-chloro-6-fluorophenyl)-2-{[2-(hydroxyacetyl)-4,4-dimethyl-1,2,3,4-tetrahydroisoquinolin-7-yl]amino}imidazo[1,2-a]pyrimido[5,4-e]pyrimidin-5(6H)-one], with < 0.01 µM.

Consider `CC1(C)CN(S(N)(=O)=O)Cc2cc(Nc3ncc4c(=O)n(-c5c(F)cccc5Cl)c5nccn5c4n3)ccc21` [Example 317, 7-{[6-(2-chloro-6-fluorophenyl)-5-oxo-5,6-dihydroimidazo[1,2-a]pyrimido[5,4-e]pyrimidin-2-yl]amino}-4,4-dimethyl-3,4-dihydroisoquinoline-2(1H)-sulfonamide], for which the Ki is < 0.01 µM.

As for `CC(=O)N1Cc2cc(Nc3ncc4c(=O)n(-c5c(Cl)cccc5Cl)c5nccn5c4n3)ccc2C(C)(C)C1` [Example 318, 2-[(2-acetyl-4,4-dimethyl-1,2,3,4-tetrahydroisoquinolin-7-yl)amino]-6-(2,6-dichlorophenyl)imidazo[1,2-a]pyrimido[5,4-e]pyrimidin-5(6H)-one], the inhibitory constant (Ki) was < 0.01 µM.
